Test results: patent US11541019B2, “Compositions for use in the treatment of diabetes” (University of Ulster, priority 2015, dated 2023)
Like-named read-outs stand apart in the source and are kept apart here.

Key:
BRIN-BD11 cells [1] = assay: cAMP production in BRIN-BD11 cells (enzyme immunoassay); assay type: cell-based; details: 11.1 mM glucose, 20 min
Protocol: (§1) For intracellular Ca2+ measurement, monolayers of BRIN-BD11 cells were seeded overnight at a density of 80,000 cells per well in a 96-well black walled clear bottom plate. Cells were washed with 100 μl of Krebs buffer and incubated for 1 hour with Flex calcium assay kit reagent at 37° C. GPR84 at 10^−4 mol/L were added at 5.6 mmol/L and 16.7 mmol/L glucose. Fluorometric data were obtained using the FLEX Station scanner and test solutions were transferred using fluid transfer workstation at a wavelength of 525 nm (Molecular Devices). For cAMP determination, BRIN-BD11 cells were seeded in a 96-well plate at a density of 30,000 cells per well. Cells were washed with 300 μl Krebs buffer for 40 min and 150 μl of compositions of the present invention at 10^−10-10^−4 mol/L were tested at […] glucose. After 20 minutes, test solutions were removed and 0.1M HCL (150 μL) was added to lyse the cells. Total cAMP production in the cell supernatants were measured using cAMP enzyme immunoassay kit according to the manufacturer's protocol (Sigma, Poole, UK).

BRIN-BD11 cells [2] = assay: Intracellular Ca2+ in BRIN-BD11 cells (Flex calcium assay kit); assay type: cell-based; details: 10^−4 mol/L, 16.7 mM glucose
Protocol: as §1

BRIN-BD11 cells [3] = assay: Acute insulin secretion from clonal BRIN-BD11 cells (radioimmunoassay); assay type: cell-based; details: for concentrations that enhanced insulin release: tested 10^−12-10^−4 mol/L; for EC50: Rattus norvegicus, BRIN-BD11, 20 min, 20 min incubation, read-out: EC50 of enhanced insulin release
Protocol: (§2) Insulin-secreting BRIN-BD11 cells were cultured with RPMI-1640 media (11.1 mM glucose) containing antibiotics (100 U/ml penicillin and 0.1 mg/ml streptomycin) and 10% foetal calf serum at 37° C. in an atmosphere of 95% air and 5% carbon dioxide. For acute insulin secretion studies, cells were detached using trypsin/EDTA and incubated overnight in 24 well plates with 150,000 cells per well. Cells were then pre-incubated for 40 minutes at 1.1 mmol/l glucose in Krebs buffer (comprising 4.7 mmol/l KCL, 115 mmol/l NaCl, 1.28 mmol/CaCl2, 10 mmol/l NaHCO3, 5 g/l BSA, 1.2 mmol/l KH2PO4, 1.2 mmol/l MgSO47H2O pH 7.4). Test incubations were then performed at 37° C. for 20 minutes. DIM, indole-3-carbinol, embelin, [6]-gingerol, and [6]-shogaol at 10^−12-10^−4 mol/L were tested at both 5.6 mmol/L and 16.7 mmol/L glucose, as indicated in the accompanying drawings. Supernatants were removed, evaluated for lactate dehydrogenase (LDH) release as an indicator of cytotoxicity (as per manufacturer's protocol) or frozen at −20° C. until determination of insulin by radioimmunoassay.

[4] = test system: high fat fed diabetic NIH Swiss mice; assay: Long-term daily oral administration in high fat fed diabetic mice; assay type: in vivo; details: for pancreatic insulin content: HFF model; for plasma insulin following oral glucose / plasma glucose following a glucose load: after long-term daily administration; for plasma glucose following a glucose load: glucose 18 mmol/kg; for increase in circulating GLP-1: at 30 min after oral glucose, long term study; for plasma GLP-1: at the end of the study; for insulin sensitivity: insulin 25 U/kg; for body weight: daily oral for 21 days; for non-fasting plasma insulin: after 21 days; for decrease in plasma glucose, area under the curve: over 21 days; for GLP-1 secretion: over the long term study, after oral glucose
Protocol: […] In order to confirm diabetes, an oral glucose tolerance test (OGTT) was performed. Food intake, fluid intake, body weight, non-fasted plasma glucose and insulin concentrations were monitored every 2- to 4-days as indicated in the accompanying drawings. At the end of the study, glucose tolerance (18 mmol/kg body weight) and insulin sensitivity (25 U/kg body weight) were assessed. Mice were anesthetised by isoflurane and killed by cervical dislocation. Dual energy X-ray absorption (DEXA) scanning was performed after prior calibration and quality control with the aluminium/lucite phantom (0.069 g/cm2, 12.0% fat) using a PIXImus system (software version 1.4x).

BRIN-BD11 cells [5] = assay: LDH release from BRIN-BD11 cells as indicator of cytotoxicity; assay type: cell-based
Protocol: as §2

NIH Swiss mice = assay: Acute effects on plasma glucose and insulin after oral glucose load; assay type: in vivo; details: for circulating (plasma) glucose after glucose load / plasma insulin (insulin release) after glucose load: high fat fed mice, oral 50 μmol/kg with glucose 18 mmol/kg
Protocol: Adult male (20-22 week) NIH Swiss mice (Harlan UK Ltd) were individually housed in an air-conditioned room at 22±2° C. with 12 hour light: 12 hour darkness cycles. […] Non-fasted NIH Swiss mice (n=6) received an oral injection of glucose alone (18 mmol/kg body weight) or in combination with compositions of the present invention (50 μmol/kg body weight). Blood samples were obtained from the cut tip from tail vein of conscious mice and centrifuged at 13,000 rpm for 3 minutes at 4° C. Plasma glucose was measured by an automated glucose oxidase procedure using a Beckman glucose analyser and insulin determined by radioimmunoassay. All animal experiments were carried out in accordance with the UK Animal (Scientific Procedures) Act 1986.

[6] = high fat fed mice, daily administration
[7] = 5.6 mM or 16.7 mM glucose, not separated at the place

EC50 (BRIN-BD11 cells [3]; 5.6 mM basal glucose) [nM]	EC50 (BRIN-BD11 cells [3]; 16.7 mM stimulatory glucose) [nM]	SMILES	cAMP production / involvement of cAMP pathway (BRIN-BD11 cells [1])	intracellular Ca2+ concentrations (BRIN-BD11 cells [2])	concentrations that enhanced insulin release (BRIN-BD11 cells [3]; 5.6 mM glucose)	concentrations that enhanced insulin release (BRIN-BD11 cells [3]; 16.7 mM glucose)	pancreatic insulin content ([4]; daily administration)	plasma insulin following oral glucose ([4]; high fat fed mice)	plasma glucose following a glucose load ([4]; high fat fed mice)	increase in circulating GLP-1 ([4]; high fat fed mice) [%]	plasma GLP-1 ([4]; high fat fed mice)	total body fat (DEXA) [4, 6]	insulin sensitivity [4, 6]	body weight ([4]; high fat fed mice)	non-fasting plasma insulin ([4]; high fat fed mice, daily oral)	decrease in plasma glucose, area under the curve ([4]; high fat fed mice, daily oral) [%]	GLP-1 secretion ([4]; high fat fed mice)	cytotoxicity (LDH release) (BRIN-BD11 cells [5]; 5.6 mM glucose)	cytotoxicity (LDH release) (BRIN-BD11 cells [5]; 16.7 mM glucose)	circulating (plasma) glucose after glucose load (NIH Swiss mice)	also measured
130	1000	c1ccc2c(Cc3c[nH]c4ccccc34)c[nH]c2c1 [Diindolylmethane, 3,3′-methanediylbis(1H-indole)]	involves the cAMP-dependent pathway	increased intracellular Ca2+ concentrations	10^−8-10^−4 mol/L	10^−9-10^−4 mol/L	reduced pancreatic insulin content	decreased plasma insulin	attenuated	61	raised	decreased body fat	decreased	decreased body weight after 15 days	augmented	18	increased GLP-1 secretion	No cytotoxicity	No cytotoxicity	decreased circulating glucose	energy intake ([4]; high fat fed mice, daily oral): decreased energy intake; fluid intake ([4]; high fat fed mice, daily oral): no effect on fluid intake; non-fasting plasma glucose ([4]; high fat fed mice, daily oral, at 21 days): decrease in plasma glucose; plasma insulin (insulin release) after glucose load (NIH Swiss mice): increase in insulin release
730	210	CCCCCCCCCCCC1=C(O)C(=O)C=C(O)C1=O [Embelin, 2,5-dihydroxy-3-undecylcyclohexa-2,5-diene-1,4-dione]	involves the cAMP-dependent pathway	increased intracellular Ca2+ concentrations	10^−9-10^−4 mol/L	10^−10-10^−4 mol/L	reduced pancreatic insulin content	decreased plasma insulin	significantly decreased	45	raised	no change in total body fat	decreased	no effect on body weight	augmented	17	increased GLP-1 secretion	No cytotoxicity	No cytotoxicity	decreased circulating glucose	low-density lipoprotein (LDL) cholesterol [4, 6]: reduced; total cholesterol [4, 6]: reduced; non-fasting plasma glucose ([4]; high fat fed mice, daily oral, after 9 days of treatment): significant decrease in plasma glucose; plasma insulin (insulin release) after glucose load (NIH Swiss mice): increase in insulin release
1500	400	OCc1c[nH]c2ccccc12 [Indole-3-carbinol, 1H-Indol-3-ylmethanol]	–	–	10^−7-10^−4 mol/L	10^−6-10^−4 mol/L	–	–	–	–	–	–	–	–	–	–	–	–	–	significantly decreased	cytotoxicity (LDH release) (BRIN-BD11 cells [5]; [7]): No cytotoxicity
1900	2800	CCCCC[C@H](O)CC(=O)CCc1ccc(O)c(OC)c1 [[6]-gingerol, (5S)-5-hydroxy-1-(4-hydroxy-3-methoxyphenyl)decan-3-one]	–	–	10^−8-10^−4 mol/L	10^−8-10^−4 mol/L	–	–	–	–	–	–	–	–	–	–	–	–	–	–	cytotoxicity (LDH release) (BRIN-BD11 cells [5]; [7]): No cytotoxicity; plasma glucose after glucose load (NIH Swiss mice; NIH Swiss mice, diet not separated (normal chow and high fat), oral with glucose 18 mmol/kg): significant decrease
–	–	CCCCC/C=C/C(=O)CCc1ccc(O)c(OC)c1 [[6]-shogaol, (E)-1-(4-hydroxy-3-methoxyphenyl)dec-4-en-3-one]	act through the cAMP pathway	increased intracellular Ca2+ concentrations	–	–	–	–	–	–	–	–	–	–	–	–	–	–	–	–	–
